Holding throughout (assay type): binding
In assay [1] the target is T1, WDR5 S218F (Homo sapiens, UniProt P61964, S218F). Kind of assay: Steady-state fluorescence polarization (FP), S218F. In general terms: Fluorescence polarisation rises when a labelled molecule tumbles more slowly, as on binding a larger partner.
Assay [2] has as its target T2, WDR5 S175L (Homo sapiens, UniProt P61964, S175L). Kind of assay: Steady-state fluorescence polarization (FP), S175L.
The target of assay [3] is T3, WDR5 P216L (Homo sapiens, UniProt P61964, P216L). Briefly: Steady-state fluorescence polarization (FP), P216L.
The target of assay [4] is T4, WDR5 D172A (Homo sapiens, UniProt P61964, D172A). Kind of assay: Biolayer interferometry (BLI), D172A. The settings on record: for koff: pH 7.5, read-out: koff (dissociation rate constant); for kon: pH 7.5, read-out: kon (association rate constant). For orientation: BLI is a label-free optical method that tracks binding on a fibre tip over time.
Assay [5] has as its target T5, WDR5 F133L (Homo sapiens, UniProt P61964, F133L). Briefly: Steady-state fluorescence polarization (FP), F133L.
In assay [6] the target is T6, WDR5 Y260H (Homo sapiens, UniProt P61964, Y260H). Kind of assay: Steady-state fluorescence polarization (FP), Y260H.
For assay [7], the target named is T6, WDR5 Y260H. Kind of assay: Biolayer interferometry (BLI), Y260H. The settings on record: for koff: pH 7.5, read-out: koff (dissociation rate constant); for kon: pH 7.5, read-out: kon (association rate constant).
Assay [8] deals with T1, WDR5 S218F. Briefly: Biolayer interferometry (BLI), S218F. The settings on record: for koff: pH 7.5, read-out: koff (dissociation rate constant); for kon: pH 7.5, read-out: kon (association rate constant).
In assay [9] the target is T2, WDR5 S175L. Briefly: Biolayer interferometry (BLI), S175L. The settings on record: for koff: pH 7.5, read-out: koff (dissociation rate constant); for kon: pH 7.5, read-out: kon (association rate constant).
The target of assay [10] is T3, WDR5 P216L. Kind of assay: Biolayer interferometry (BLI), P216L. The settings on record: for koff: pH 7.5, read-out: koff (dissociation rate constant); for kon: pH 7.5, read-out: kon (association rate constant).
The target of assay [11] is T4, WDR5 D172A. Kind of assay: Steady-state fluorescence polarization (FP), D172A.
The target of assay [12] is T5, WDR5 F133L. Kind of assay: Biolayer interferometry (BLI), F133L. The settings on record: for increase in KD-BLI: F133L versus native WDR5; for koff: pH 7.5, read-out: koff (dissociation rate constant); for kon: pH 7.5, read-out: kon (association rate constant).

No end group written: not given here.

Broadly, the Kd is the equilibrium constant for the complex coming apart. A low value points to a tighter complex. In general, koff refers to the rate constant with which the complex falls apart. The kon is a measure of how fast the partners come together. As to `CC(C)[C@H](NC(=O)[C@H](Cc1c[nH]cn1)NC(=O)[C@@H](N)CCC(=O)O)C(=O)N[C@H](C(=O)NCC(=O)N[C@@H](CS)C(=O)N[C@@H](C)C(=O)N[C@@H](CCCNC(=N)N)C(=O)N[C@@H](CO)C(=O)N[C@@H](CCC(=O)O)C(=O)NCC(=O)N[C@@H](Cc1ccccc1)C(=O)N[C@@H](Cc1ccc(O)cc1)C(=O)N[C@H](C(N)=O)[C@@H](C)O)[C@@H](C)O` [SETd1BWin], the Kd in assay [1] stood at 37 ± 1 nM; in [2], 11 ± 1 nM; in assay [3], 28 ± 2 nM; in [4], 260 ± 10 nM; in assay [5], 820 ± 30 nM; in assay [6], 23 ± 2 nM. Moreover, the Kd in [7] is 230 ± 10 nM; in [8], 360 ± 20 nM; in assay [9] it was 56 ± 3 nM; in assay [10] it was 370 ± 40 nM; in assay [11] it was 18 ± 1 nM; in assay [12], 6000 nM. In addition, the koff stood at 0.023 ± 0.003 s⁻¹ in assay [4]; 0.023 ± 0.003 s⁻¹ in assay [7]; 0.023 ± 0.002 s⁻¹ in assay [8]; 0.0049 ± 0.0003 s⁻¹ in assay [9]; 0.03 ± 0.005 s⁻¹ in [10]; 0.24 ± 0.02 s⁻¹ in [12]. For the same compound, the kon was 89000 ± 14000 M⁻¹ s⁻¹ in [4]; 100000 ± 10000 M⁻¹ s⁻¹ in [7]; 63000 ± 6000 M⁻¹ s⁻¹ in assay [8]; 84000 ± 6000 M⁻¹ s⁻¹ in [9]; 80000 ± 8000 M⁻¹ s⁻¹ in [10]; 43000 ± 12000 M⁻¹ s⁻¹ in [12]. The “increase in KD-BLI” value in assay [12] was “between one and two orders of magnitude”.
On to EHQTGSARSEGYYP-NH2 [SETd1AWin], for which the Kd in assay [1] turned out to be 100 ± 10 nM; in assay [2], 92 ± 7 nM; in assay [3], 39 ± 2 nM; in [4] it was 900 ± 240 nM; in assay [5], 5700 nM; in [6], 140 ± 20 nM. Moreover, the Kd is 1100 nM in assay [7]; 830 ± 110 nM in assay [8]; 1400 nM in assay [9]; 380 ± 20 nM in assay [10]; 61 ± 2 nM in assay [11]; 30000 nM in [12]. For the same compound, the koff turned out to be 0.11 ± 0.03 s⁻¹ in [4]; 0.098 ± 0.029 s⁻¹ in assay [7]; 0.046 ± 0.007 s⁻¹ in assay [8]; 0.089 ± 0.03 s⁻¹ in assay [9]; 0.033 ± 0.004 s⁻¹ in assay [10]; 0.69 ± 0.04 s⁻¹ in [12]. Moreover, the kon in [4] worked out at 130000 ± 10000 M⁻¹ s⁻¹; in assay [7] it was 88000 ± 13000 M⁻¹ s⁻¹; in assay [8], 56000 ± 4000 M⁻¹ s⁻¹; in [9] it was 61000 ± 7000 M⁻¹ s⁻¹; in [10], 86000 ± 8000 M⁻¹ s⁻¹; in assay [12] it was 26000 ± 3000 M⁻¹ s⁻¹. In [12], the “increase in KD-BLI” value is “between one and two orders of magnitude”.
In the case of INPTGCARSEPKIL-NH2 [MLL2Win], the Kd in assay [1] is 94 ± 7 nM; in [2], 11 ± 1 nM; in assay [3] it was 18 ± 3 nM; in assay [4] it was 240 ± 10 nM; in assay [5] it was 2100 nM; in assay [6], 34 ± 4 nM. Further, the Kd in assay [7] was 200 ± 20 nM; in assay [8], 640 ± 20 nM; in [9], 130 ± 10 nM; in assay [10], 200 ± 50 nM; in assay [11], 25 ± 4 nM; in [12] it was 8300 nM. In addition, the koff in [4] was 0.014 ± 0.001 s⁻¹; in [7], 0.013 ± 0.001 s⁻¹; in assay [8], 0.025 ± 0.002 s⁻¹; in assay [9], 0.0063 ± 0.0001 s⁻¹; in assay [10], 0.011 ± 0.002 s⁻¹; in [12] it was 0.14 ± 0.02 s⁻¹. Further, the kon in [4] came out at 57000 ± 6000 M⁻¹ s⁻¹; in assay [7] it was 66000 ± 9000 M⁻¹ s⁻¹; in assay [8], 40000 ± 2000 M⁻¹ s⁻¹; in [9], 49000 ± 4000 M⁻¹ s⁻¹; in assay [10] it was 56000 ± 8000 M⁻¹ s⁻¹; in assay [12] it was 16000 ± 1000 M⁻¹ s⁻¹. The “increase in KD-BLI” value in [12] was “between one and two orders of magnitude”.
With LNPHGAARAEVYLS-NH2 [MLL4Win], the Kd in assay [1] was 420 ± 40 nM; in [2], 280 ± 30 nM; in assay [3], 690 ± 60 nM; in assay [4], 1400 nM; in [5], 8800 nM; in assay [6] it was 130 ± 10 nM. In addition, the Kd in assay [8] is 3400 nM; in [9], 4200 nM; in assay [10], 9900 nM; in assay [11], 78 ± 3 nM; in assay [12], not below 100000 nM. The koff in assay [4] was 0.051 ± 0.01 s⁻¹; in assay [7], 0.047 ± 0.028 s⁻¹; in [8], 0.071 ± 0.001 s⁻¹; in [9] it was 0.13 ± 0.004 s⁻¹; in [10], 0.22 ± 0.05 s⁻¹; in assay [12], more than 1 s⁻¹. Further, the association rate constant (kon) in [4] came out at 37000 ± 4000 M⁻¹ s⁻¹; in assay [7], 24000 ± 3000 M⁻¹ s⁻¹; in assay [8], 20000 ± 2000 M⁻¹ s⁻¹; in assay [9], 30000 ± 1000 M⁻¹ s⁻¹; in assay [10], 19000 ± 3000 M⁻¹ s⁻¹.
For the compound LNPHGSARAEVHLS-NH2 [MLL1Win], the Kd is 8100 nM in [1]; 4800 nM in [2]; more than 14600 nM in assay [3]; not below 100000 nM in assay [4]; more than 53000 nM in assay [5]; 9700 nM in [6]. Also, the Kd was not below 100000 nM in assay [7]; not below 100000 nM in assay [8]; not below 100000 nM in [9]; not below 100000 nM in [10]; 5600 nM in [11]. Besides, the koff in assay [4], in [7], in assay [8], in assay [9] and in assay [10] was more than 1 s⁻¹ each time.
For the compound VNPTGCARSEPKMS-NH2 [MLL3Win], the Kd in assay [1] amounted to 80 ± 7 nM; in assay [2] it was 23 ± 1 nM; in assay [3] it was 19 ± 1 nM; in assay [4] it was 140 ± 10 nM; in [5] it was 1000 nM; in assay [6], 22 ± 2 nM. For the same compound, the Kd worked out at 110 ± 20 nM in [7]; 530 ± 20 nM in [8]; 330 ± 20 nM in [9]; 200 ± 30 nM in assay [10]; 12 ± 1 nM in [11]; 3700 nM in assay [12]. In addition, the koff in assay [4] amounted to 0.0093 ± 0.0019 s⁻¹; in assay [7], 0.0077 ± 0.0006 s⁻¹; in assay [8] it was 0.021 ± 0.003 s⁻¹; in [9] it was 0.016 ± 0.002 s⁻¹; in [10] it was 0.011 ± 0.003 s⁻¹; in assay [12], 0.1 ± 0.01 s⁻¹. Moreover, the kon amounted to 65000 ± 13000 M⁻¹ s⁻¹ in [4]; 64000 ± 2000 M⁻¹ s⁻¹ in assay [7]; 39000 ± 5000 M⁻¹ s⁻¹ in [8]; 49000 ± 3000 M⁻¹ s⁻¹ in assay [9]; 53000 ± 7000 M⁻¹ s⁻¹ in [10]; 36000 ± 21000 M⁻¹ s⁻¹ in [12]. Moreover, the “increase in KD-BLI” value in assay [12] is “between one and two orders of magnitude”.

The record behind these values is article PMC9207812 (ACS chemical biology, 2022).
